In one experiment the target is T1, glyoxalase 1 (Glo1) (Homo sapiens, UniProt Q04760).
T1 construct: Glo1 was purified from human erythrocytes as described earlier; from tissue; host or cells: human erythrocytes
T1 sequence (Q04760 2-184 limits assumed): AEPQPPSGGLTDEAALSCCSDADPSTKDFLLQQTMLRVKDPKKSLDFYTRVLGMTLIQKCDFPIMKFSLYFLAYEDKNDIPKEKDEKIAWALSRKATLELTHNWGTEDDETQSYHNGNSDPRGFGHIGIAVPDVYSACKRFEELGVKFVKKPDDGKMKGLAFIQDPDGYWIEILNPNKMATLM
Briefly: Inhibition of purified glyoxalase 1 activity (Dixon plot). Type of experiment: biochemical. To be noted: purified Glo1 70 mU, substrates MGO and GSH, Dixon plot. As to the method: Purified Glo1 (70 mU) was incubated with increasing concentrations of different polyphenols at three substrate concentrations; and enzyme activity was recorded (n = 3). The inhibitor concentration was plotted vs. the reciprocal of enzyme activity (1/v) in Dixon plots.
Glo1 was purified from human erythrocytes as described earlier. Briefly, erythrocytes were treated with butanol/chloroform to denature hemoglobin followed by acetone and ammonium sulphate fractionation.
The determination of Glo1 (E.C.4.4.1.5) activity has been described previously. […] The inhibition constant, Ki value of the inhibitors was evaluated by Dixon plot showing the reciprocal of enzyme velocity against the inhibitor concentration at variable concentrations of the substrate. Human Glo2 (E.C.3.1.2.6) was measured using the substrate S-lactoylglutathione as described earlier.
A goodness-of-fit criterion (Akaike's information criterion, AIC) was used for falsification of incompatible inhibition models. […] Spearman's rank correlation test was applied to evaluate the correlation between the IC50 values of pro-inflammatory cytokine release and the Ki-values of various polyphenols. Data were presented as means±S.D. of at least three independent experiments. […] In all other tests, significance has been considered at values of p<0.05.

In experiment [1] the test system is IL-1β release from LPS-stimulated blood cells. Briefly: Whole blood assay, LPS-induced IL-1β release (cytometric bead array). It counts as cell-based. The note with it: Homo sapiens; heparinized whole blood, LPS 10 ng/ml, 6 h, 37°C. The protocol: Figure 2 Effect of polyphenols on IL-1β release from LPS-stimulated blood cells. Heparinized whole blood was stimulated by LPS in the absence or presence of polyphenols at increasing concentrations and incubated for 6 h at 37°C with 5% CO2. (A) Released IL-1β as measured in cell supernatants. Samples without additives but LPS were set at 100%. (B) The calculated […] values of the respective polyphenols. Data represent mean±S.D. of independent experiments (n = 6).
Whole blood assay was performed as previously described. Accordingly, LPS (10 ng/ml), test substances and 200 µl heparinized human blood of healthy donors, obtained from the blood bank of the University of Leipzig, were co-incubated with serum-free medium (RPMI-SF, 1 ml final volume) in 24-well culture plates for 6 h at 37°C with 5% CO2. Samples were removed, centrifuged at 2000×g for 10 min and supernatants were stored at −20°C until assaying for inflammatory cytokines.
Assessment of cytokine levels in supernatants of human blood cell cultures was accomplished using Cytometric Bead Array (CBA™, BD Biosciences, San Jose, U.S.A). The procedure was carried out according to the manufacturer's instruction. Fluorescence measurement and analysis were performed using a FACSCalibur and the CellQuest software (BD Biosciences).

The subject of experiment [2] is brain astrocytoma 1321N1 cells. The experiment in a line: Cell proliferation WST-1 assay, 1321N1. Type of experiment: cell-based. To be noted: 1321N1, 24 h; for anti-proliferative effect compared to curcumin: WST-1. As to the method: (§1) Figure 3 Growth inhibition of different tumor cell lines by polyphenols. […] Following 24-h incubation, cell proliferation was evaluated using the WST-1 assay.
(§2) Tumor cells were cultured in RPMI medium containing 10% fetal calf serum (RPMI-FCS) (PC-3, JIMT-1, MDA-MD 231) or in DMEM-FCS (astrocytoma 1321N1 cells) containing penicillin/streptomycin (100 U penicillin/ml; 100 µg streptomycin/ml) at 37°C/5% CO2. Cytosolic protein extracts of tumor cells were prepared using extraction buffer composed of 25 mM Tris, 2 mM EDTA, 10% Glycerol, 1% Triton ×100, 2 mM DTT, 1mM PMSF, pH. 7.0 containing 0.3% protease inhibitor cocktail. Protein content was determined according to Bradford. Specific activity of enzymes analyzed in cell extracts was expressed as U/mg protein.
(§3) Cell proliferation/vitality of tumor cells (96-well plates; 5000 cells/well) and primary human hepatocytes (24-well plates; 0.25×10^6 cells/well) was assayed using the WST-1 assay according to manufacturer's instructions. Trypan blue exclusion was performed by staining cells with 0.4% aqueous trypan blue solution according to the manufacturer's instructions.

The subject of experiment [3] is breast cancer JIMT-1 cells. The experiment in a line: Cell proliferation WST-1 assay, JIMT-1. Type of experiment: cell-based, human. To be noted: JIMT-1, 24 h, WST-1, increasing concentrations. As to the method:
as §1, §2, §3
In general terms: Tetrazolium assays rely on reduction of a dye to a coloured formazan, in cell work by metabolically active cells.

Another experiment relates to astrocytoma 1321N1 cells. The experiment in a line: Cellular ATP content (CellTiter-Glo), 1321N1. It counts as cell-based. To be noted: 1321N1, 6 h; curcumin 0–100 µM, MGO 0–1000 µM. As to the method: (§4) Cellular ATP content was determined using the CellTiter-Glo® Luminescent Cell Viability Assay. Data represent the mean±S.D. of independent experiments (n = 12).
(§5) Cell ATP content was determined by means of the CellTiter-Glo® Luminescent Cell Viability Assay according to the manufacturer's instructions (Promega, Madison, USA). […] After 6-h incubation, cells were mixed with test reagents and luminescence was read according to the manufacturer's instructions. A standard curve was prepared from ATP (1 µM to 10 nM) in medium.
In general terms: In ATP-based viability assays light output follows the ATP content of the culture.

For the next experiment, the system named is JIMT-1 cells. Briefly: Cellular ATP content (CellTiter-Glo), JIMT-1. Type of experiment: cell-based, human. To be noted: JIMT-1, 6 h; curcumin 0–100 µM, MGO 0–1000 µM. The protocol: as §4, §5

`O=c1cc(-c2ccc(O)c(O)c2)oc2cc(O)cc(O)c12` [luteolin]: affinity on glyoxalase 1 (Glo1) was put at a Ki of 35 ± 6.3 µM. Also, inhibition in experiment [1] was half-maximal at 68 µM (IC50).
For `O=c1c(O)c(-c2cc(O)c(O)c(O)c2)oc2cc(O)cc(O)c12` [myricetin], the “anti-proliferative effect compared to curcumin” value in experiment [2] is “less anti-proliferative”.
Turning to `CC(=O)C=O` [MGO, methylglyoxal, reference compound], the “effect on cell proliferation” value in experiment [2] (WST-1, increasing concentrations) is reported as “anti-proliferative properties”; in experiment [3], “anti-proliferative properties”. Moreover, the “cellular ATP content” value with astrocytoma 1321N1 cells and with JIMT-1 cells was “comparable effects” each time.
With `O=c1c(O)c(-c2ccc(O)c(O)c2)oc2cc(O)cc(O)c12` [quercetin], half-maximal inhibition in experiment [1] (IC50) was put at 20 µM. Further, the “anti-proliferative effect compared to curcumin” value in experiment [2] was “less anti-proliferative”.
In the case of `O=c1c(O)c(-c2ccc(O)cc2)oc2cc(O)cc(O)c12` [kaempferol], the Ki (in general, the dissociation constant of the complex between target and ligand, obtained from inhibition or displacement) on glyoxalase 1 (Glo1) came out at 21 ± 3.8 µM. For the same molecule, the IC50 (usually the concentration that gives 50% inhibition) in experiment [1] came out at 34.6 µM.
`C[C@@H]1O[C@@H](OC[C@H]2O[C@@H](Oc3c(-c4ccc(O)c(O)c4)oc4cc(O)cc(O)c4c3=O)[C@H](O)[C@@H](O)[C@@H]2O)[C@H](O)[C@H](O)[C@H]1O` [rutin] showed a Ki on glyoxalase 1 (Glo1) of 140 ± 15 µM.

The record behind these values is article PMC2567432 (PLoS ONE, 2008).
